# Results as given in patent US10253002B2, “Compounds and methods of treating infections” (Neoculi Pty Ltd., priority 2013, dated 2019).
# What was measured:
# Assay in all cases: Broth microdilution MIC, Example 7 (NCL812 and analogues)
# MRSA = assay type: cell-based, Staphylococcus aureus; conditions: for MIC (μg/ml) at 24 hours, MRSA 1 / MIC (μg/ml) at 24 hours, MRSA 2: duplicate lines per compound; for activity against MRSA among analogues: MIC testing, two MRSA strains
# How it was run: (§1)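 Duplicates per isolate, repeated a third time if >one two-fold dilution apart. MIC50, MIC20 and range calculated per bacterial group.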
# VRE = assay type: cell-based, Enterococcus spp.; conditions: for MIC (μg/ml) at 24 hours, VRE 1 / MIC (μg/ml) at 24 hours, VRE 2: duplicate lines per compound; for activity against VRE among analogues: MIC testing, two VRE strains
# How it was run: as §1
# Escherichia coli = assay type: cell-based; conditions: E. coli; 24 hours; duplicate lines per compound
# Pseudomonas aeruginosa = assay type: cell-based; conditions: P. aeruginosa; 24 hours; duplicate lines per compound
SMILES,"MIC (μg/ml) at 24 hours, MRSA 1 (MRSA) [µg/mL]","MIC (μg/ml) at 24 hours, MRSA 2 (MRSA) [µg/mL]","MIC (μg/ml) at 24 hours, VRE 1 (VRE) [µg/mL]","MIC (μg/ml) at 24 hours, VRE 2 (VRE) [µg/mL]","MIC (μg/ml) at 24 hours, E. coli (Escherichia coli) [µg/mL]","MIC (μg/ml) at 24 hours, P. aeruginosa (Pseudomonas aeruginosa) [µg/mL]",activity against MRSA among analogues (MRSA),activity against VRE among analogues (VRE)
FC(F)(F)c1ccc(-c2nnc(Nc3ccc(Cl)cc3)[nH]2)cc1 [NCL091],>128,>128,>128,>128,>128,>128,,
Clc1ccc(CNc2nnc(-c3ccc(Cl)cc3)[nH]2)cc1 [NCL092],>128,>128,>128,>128,>128,>128,,
Cl.N=C(N/N=C/c1ccc2ccccc2c1)N/N=C/c1ccc2ccccc2c1 [NCL093],64,128,64,>128,>128,>128,greatest activity,greatest activity
Cl.N=C(NN=CC1CCCCC1)NN=CC1CCCCC1 [NCL094],128,128,64,128,>128,>128,greatest activity,greatest activity
Cl.N=C(NN=Cc1ccoc1)NN=Cc1ccoc1 [NCL095],>128,>128,>128,>128,>128,>128,,
Cl.N=C(N/N=C/C=C/c1ccccc1)N/N=C/C=C/c1ccccc1 [NCL096],>128,>128,>128,>128,>128,>128,,
Cl.N=C(NN=Cc1cccc(C(=O)O)c1)NN=Cc1cccc(C(=O)O)c1 [NCL098],>128,>128,>128,>128,>128,>128,,
Cl.N=C(N/N=C/c1ccccc1)N/N=C/c1ccccc1 [NCL100],>128,>128,>128,>128,>128,>128,,
Cl.N=C(NN=Cc1cccc(O)c1O)NN=Cc1cccc(O)c1O [NCL101],32,32,64,128,>128,>128,greatest activity,greatest activity
Cl.N=C(NN=Cc1ccccc1[N+](=O)[O-])NN=Cc1ccccc1[N+](=O)[O-] [NCL102],>128,>128,>128,>128,>128,>128,,
Cl.N=C(N/N=C/c1ccc(O)cc1O)N/N=C/c1ccc(O)cc1O [NCL103],>128,>128,>128,>128,>128,>128,,
Cl.N=C(NN=Cc1cc(O)c(O)cc1O)NN=Cc1cc(O)c(O)cc1O [NCL104],64,64,128,>128,>128,>128,greatest activity,
Cl.N=C(NN=Cc1ccc(O)c(O)c1O)NN=Cc1ccc(O)c(O)c1O [NCL105],64,>128,64,>128,>128,>128,,greatest activity
COc1cc(C=NNC(=N)NN=Cc2cc(O)c(O)c(OC)c2)cc(O)c1O.Cl [NCL106],>128,>128,>128,>128,>128,>128,,
Cl.N=C(NN=Cc1cccc(O)c1)NN=Cc1cccc(O)c1 [NCL108],64,64,64,128,>128,>128,greatest activity,greatest activity
Cl.N=C(N/N=C/c1cccc([N+](=O)[O-])c1)N/N=C/c1cccc([N+](=O)[O-])c1 [NCL109],>128,>128,>128,>128,>128,>128,,
Cl.N=C(NN=Cc1ccc([N+](=O)[O-])cc1)NN=Cc1ccc([N+](=O)[O-])cc1 [NCL110],>128,>128,>128,>128,>128,>128,,
Cl.N=C(NN=Cc1ccc(O)c(O)c1)NN=Cc1ccc(O)c(O)c1 [NCL111],64,64,64,>128,>128,>128,greatest activity,greatest activity
Cl.N=C(NN=Cc1ccc(-c2ccccc2)cc1)NN=Cc1ccc(-c2ccccc2)cc1 [NCL112],>128,128,64,32,>128,>128,,greatest activity
Cl.N=C(NN=Cc1cc(Cl)cc(Cl)c1)NN=Cc1cc(Cl)cc(Cl)c1 [NCL114],>128,>128,>128,>128,>128,>128,,
